Legend:
Format in all cases: in vivo, BALB/C mice
Settings in all cases: Group 2 (Ara-C+GM-CSF) vs Group 1 (Ara-C)
hemopoietic cells = experiment: Proliferation of hemopoietic cells and tolerance of multiple cycles of Ara-C chemotherapy
Protocol: (§1) A number of assays were performed to show the effect of combining the hemopoiesis inhibitory factor and hemopoiesis growth factor on the proliferation of hemopoietic cells during chemotherapy.
(§2) Three groups of BALB/C mice were used in this study. Mice of the three groups were treated as follows (i.e., with Ara-C, the abbreviation of cytosine arabinoside, as the cytotoxic agent, AcSDKP as the hemopoiesis inhibitory factor, and GM-CSF as the hemopoiesis growth factor):
(§3) In each group, the animals were subjected to a sequence of three cycles of chemotherapy, i.e., Cycle I (Days 0-20), Cycle II (Days 21-37), and Cycle III (Days 38-56). Note that animals in each group were sacrificed on specific days for collection of blood samples, eliminating the artifact that may have been induced by intensive repetitive bleedings of the same animals.
(§4) Minipump implantations and excisions: The 200 μl capacity ALZET™ osmotic minipump Model 2001 (Alza Corporation, Palo Alto, Calif.) primed to deliver 1.0 μL/hour for 7 days was used for continuously administering the 100 ng/hour of AcSDKP in each cycle. More specifically, during each cycle, AcSDKP primed pumps were implanted s.c. prior to the first administration of Ara-C in the A.M. of day zero and excised in the A.M. of day 7. The first administration of Ara-C was in the A.M. of day zero and the last administration in the A.M. of day 6 (q.d., or once per day).
Treatment cycle: For the animals of Group 3, each cycle consists of a period in which Ara-C and AcSDKP were administered, a period in which the administered Ara-C and AcSDKP were purged, a period in which GM-CSF was administered, and, finally, a further recovery period. More specifically, after 7 consecutive days of Ara-C treatment during which time AcSDKP was administered by continuous s.c. infusion (see the preceding paragraph), a 2-day period followed so as to allow for purging of both AcSDKP and Ara-C. […]

platelets = experiment: Platelet counts in mice during three cycles of Ara-C chemotherapy
Protocol: as §1, §2, §3, §4
(§5) Treatment cycle: For the animals of Group 3, each cycle consists of a period in which Ara-C and AcSDKP were administered, a period in which the administered Ara-C and AcSDKP were purged, a period in which GM-CSF was administered, and, finally, a further recovery period. More specifically, after 7 consecutive days of Ara-C treatment during which time AcSDKP was administered by continuous s.c. infusion (see the preceding paragraph), a 2-day period followed so as to allow for purging of both AcSDKP and Ara-C. GM-CSF was then administered for 4 days (b.i.d., or twice per day), and the animals were permitted 4-8 more days at the end of the GM-CSF administration to recover before the initiation of the subsequent cycle (as in Cycles I and II) or before the collection of the last blood samples (as in Cycle III).
(§6) Blood sample collection: Blood samples (maximum attainable volume) for clinical pathology evaluations were collected from mice at euthanasia. The mice were food-fasted overnight prior to blood collection and samples were collected by puncture of the retro-orbital sinus after anesthetization by CO2 inhalation.
(§7) Analysis of blood samples: Hematology data were collected electronically and processed by the HUMMINGBIRD™ computer system (Laboratories Consulting, Inc., Madison, Wis.). Blood samples were processed and evaluated for the parameters specified (polymorphonuclear cell, platelet, and white blood cell counts in 10^3 cells/[…] as shown in Tables 2 and 3) using a Sysmex TOAE-2500 hematology analyzer (TOA Medical Electronics, Kobe, Japan).
(§8) See the right-hand column "percent change," i.e., (cell count from Group 2/cell count from Group 1)×100%, in Table 2. The data in Table 2 (as well as in Table 3) are log transformed to minimize the effect of outliers and the geometric means of the data are used for the analyses. The difference in the means between two test groups are compared for each of three different stages, i.e., chemotherapy (days 0-4, 21-25 and 38-42 in Cycles I, II and III, respectively), nadir (days 5-10, 26-31 and 43-48 in Cycles I, II and III, respectively), or recovery (days 11-20, 32-37 and 49-56 in Cycles I, II and III, respectively). Significant differences are marked by a large dot, which stands for P<0.003, a statistically significant p-value for data compared between two groups combined over the three cycles.

polymorphonuclear cells = experiment: Polymorphonuclear cell counts in mice during three cycles of Ara-C chemotherapy
Protocol: as §1, §2, §3, §4, §5, §6, §7
as §8, with “The” for “See the right-hand column "percent change," i.e., (cell count from Group 2/cell count from Group 1)×100%, in Table 2. The”

white blood cells = experiment: White blood cell counts in mice during three cycles of Ara-C chemotherapy
Protocol: as §1, §2, §3, §4, §5, §6, §7, §8

[1] = Cycle I, Chemotherapy (days 0-4)
[2] = Cycle II, Chemotherapy (days 21-25)
[3] = Cycle III, Chemotherapy (days 38-42)
[4] = Cycle II, Recovery (days 32-37)
[5] = Cycle III, Recovery (days 49-56)

Q: For “GM-CSF: granulocyte/macrophage-colony stimulating factor, the hemopoiesis growth factor, procured from Immunix Research and Development Corp.”, which “Ability of the animals to tolerate multiple cycles of chemotherapy” value (hemopoietic cells) is on record?
A: did not enhance

Q: And the “Percent change, platelet count” value (platelets; [1])?
A: 30.5966%

Q: What about the “Percent change, platelet count” value (platelets; Cycle I, Nadir (days 5-10)) of the same substance?
A: 0.0332%

Q: What about the “Percent change, platelet count” value (platelets; Cycle I, Recovery (days 11-20), marked significant) of the same substance?
A: 10.6804%

Q: And the “Percent change, platelet count” value (platelets; [2])?
A: 0.5878%

Q: And the “Percent change, platelet count” value (platelets; Cycle II, Nadir (days 26-31))?
A: 0.0259%

Q: And the “Percent change, platelet count” value (platelets; Cycle II, Recovery (days 32-37), marked significant)?
A: 20.4577%

Q: What about the “Percent change, platelet count” value (platelets; [3]) of the same substance?
A: 15.5436%

Q: What about the “Percent change, platelet count” value (platelets; Cycle III, Nadir (days 43-48)) of the same substance?
A: 14.0708%

Q: And the “Percent change, platelet count” value (platelets; Cycle III, Recovery (days 49-56), marked significant)?
A: 11.9135%

Q: What about the “Platelet counts, change in words” value (platelets; recovery periods, three cycles combined, p=0.0003) of the same substance?
A: significantly increased

Q: And the “Percent change, polymorphonuclear cell count” value (polymorphonuclear cells; [1])?
A: -0.2001%

Q: What about the “Percent change, polymorphonuclear cell count” value (polymorphonuclear cells; Cycle I, Nadir (days 5-10)) of the same substance?
A: 23.1962%

Q: What about the “Percent change, polymorphonuclear cell count” value (polymorphonuclear cells; Cycle I, Recovery (days 11-20)) of the same substance?
A: 21.7299%

Q: And the “Percent change, polymorphonuclear cell count” value (polymorphonuclear cells; [2])?
A: 19.8969%

Q: And the “Percent change, polymorphonuclear cell count” value (polymorphonuclear cells; Cycle II, Nadir (days 26-31))?
A: 9.4827%

Q: What about the “Percent change, polymorphonuclear cell count” value (polymorphonuclear cells; [4]) of the same substance?
A: -10.9401%

Q: And the “Percent change, polymorphonuclear cell count” value (polymorphonuclear cells; [3])?
A: 29.7855%

Q: And the “Percent change, polymorphonuclear cell count” value (polymorphonuclear cells; Cycle III, Nadir (days 43-48))?
A: 1.6526%

Q: What about the “Percent change, polymorphonuclear cell count” value (polymorphonuclear cells; [5]) of the same substance?
A: -0.7213%

Q: And the “Percent change, white blood cell count” value (white blood cells; [1])?
A: -9.1838%

Q: What about the “Percent change, white blood cell count” value (white blood cells; Cycle I, Nadir (days 5-10)) of the same substance?
A: 17.5916%

Q: And the “Percent change, white blood cell count” value (white blood cells; Cycle I, Recovery (days 11-20))?
A: 5.3418%

Q: And the “Percent change, white blood cell count” value (white blood cells; [2])?
A: 43.1551%

Q: And the “Percent change, white blood cell count” value (white blood cells; Cycle II, Nadir (days 26-31))?
A: 40.2987%

Q: What about the “Percent change, white blood cell count” value (white blood cells; [4]) of the same substance?
A: -7.2022%

Q: And the “Percent change, white blood cell count” value (white blood cells; [3])?
A: 7.717%

Q: And the “Percent change, white blood cell count” value (white blood cells; Cycle III, Nadir (days 43-48))?
A: -9.5103%

Q: What about the “Percent change, white blood cell count” value (white blood cells; [5]) of the same substance?
A: -0.8913%

Q: What about the “White blood cell counts, change in words” value (white blood cells; recovery period of Cycles II and III) of the same substance?
A: decreased

Reference: patent US5595973A, “Protection of hemopoietic cells during chemotherapy or radiotherapy” (Biomeasure Incorporated, priority 1994, dated 1997)
